According to paper PMC11123692, “Sugar-Based Surfactants: Effects of Structural Features on the Physicochemical Properties of Sugar Esters and Their Comparison to Commercial Octyl Glycosides” (Molecules, 2024):
In brackets after ≈: the same amount, converted by molar mass. Several values for one entry are separate records, joined by “and”; a condition that tells them apart may be missing. Equal entries are not always repeated. Where two headings read alike, the source gives them in different places.

How the values were obtained:
[1] = cited from earlier work
[2] = above its Tk; cited from earlier work
[3] = Krafft temperature (Tk) by visual examination and DSC of molecule/water systems; type: physicochemical; conditions: in water; observation and DSC; average ± SD of at least two measurements
Excerpt: (§1) Water solubility reflects the ability of a particular molecule to dissolve and its interaction with water. To characterize the water solubility of most amphiphile molecules, especially the ionic surfactants, the Krafft point (Tk) is often used, referring to the critical temperature above which micelles form or the melting point of the hydrated solid surfactant. Two general approaches were used to measure the Tks of the molecules investigated herein: (1) a visual examination of the dissolution phenomenon for binary molecule/water systems, and (2) a quantitative measurement by using differential scanning calorimetry (DSC) analysis. The visual observation procedure is detailed below. We start with adding the molecule into 5–50 mL water, in a concentration range between 10^−2 mM and 10^3 mM (corresponding to a range of a surfactant mass concentration well below 20%), keeping the suspension under stirring for a certain time at room temperature (RT). Consequently, molecules can be classified into two major types: those soluble in water at RT and others insoluble at RT, with the solubility limit being called S (expressed in mM). The aspect of the sample, either transparent or turbid, is determined by direct visual examination. Tk determination with DSC is particularly applicable in the case of molecules insoluble at RT, for which a concentrated binary molecule/water mixture with a mass fraction of 20% of each molecule (C >> CMC in most cases) was prepared at 65 °C under stirring for 30 min to obtain a homogeneous system. These pre-homogenized aqueous systems were cooled and conserved in a refrigerator at 4 °C for a suitable period (>7 days), during which equilibrated hydrated crystals formed and precipitated. Then, for each molecule, about a 200–400 mg crystal sample was taken and put into the calorimeter cell. The first equilibrium phase was programmed at 4 °C for 1 h, followed by a slow heating stage from 4 °C to 65 °C at a rate of 0.5 °C/min. Tk was determined based on the location of the endothermic peak on the DSC curve, if any. All agitations were performed using a standard magnetic hotplate stirrer, MR 3001K (Heidolph Instruments, Schwabach, Germany). DSC curves were obtained from a commercial µDSC7 evo calorimeter (SETARAM Instrumentation, Caluire-et-Cuire, France). Tks are reported as the averages of at least two measurements as well as their standard deviations.

[4] = Water solubility limit by visual examination (transparent/turbid); type: physicochemical; conditions: water, water; for solubility: thermodynamic from solid, read-out: Solubility Limit (S/mM)
Excerpt: as §1, with “We start with adding the molecule into 5–50 mL water, in a concentration range between 10^−2 mM and 10^3 mM (corresponding to a range of a surfactant mass concentration well below 20%), keeping the suspension under stirring for a certain time at room temperature (RT).” left out

[5] = Equilibrium surface tension, Wilhelmy plate method (CMC, γcmc, Amin and derived quantities); type: physicochemical; conditions: for Amin: from Gibbs adsorption equation
Description: CMCs are determined from the inflections in the plots of equilibrium surface tension against the logarithm of the concentration. For the interested reader, the Gibbs-free energy of micellization, ΔGmic, the Gibbs-free energy of adsorption, ΔGads, and the efficiency of surfactant adsorption pC20 were calculated based on their definitions, as presented in Table 2.
The surface activity reflects the amphiphiles’ adsorption behavior on the air–aqueous solution interface. The surface tension (γ) was obtained using the Wilhelmy plate method with a K100 Processor Tensiometer (KRUSS, Hamburg, Germany). Both the critical micellar concentration (CMC) and equilibrium surface tension at the CMC (γcmc) were derived from the typical plot of surface tension (γ) against the logarithm of concentration (Log C). The surface excess (Γmax) and minimal area per molecule at the air–aqueous solution interface (Amin) at different temperatures were calculated from the Gibbs adsorption equation [3, 46]:(2) Γmax=−1/2.303RT(dγ/dlogc) and (3) Amin=10^20/NAΓmax where R is the ideal gas constant, 8.31 J∙mol^−1∙K^−1; T is the measuring temperature, K; γ is the surface tension, N/m; c is the concentration, mol.L^−1; Amin is the minimal area per molecule, Å^2, and NA is Avogadro’s number, 6.022·10^23 mol^−1.
For each molecule, several solutions of a wide range of concentrations were prepared. Before measuring, each solution was finely homogenized with the help of a magnetic stirring bar. The stirring time was fixed at 30 min in all cases. […] Then, measurements were performed once for each concentration, at the solution preparation’s temperature, with an uncertainty of ±1 °C.

[6] = at 25 °C, mixture of α and β anomers

SMILES	Tk (Krafft temperature) [3] [°C]	solubility ([4]; at RT) [mM]	C20 ([5]; T = 25 °C) [mM]	pC20 ([5]; T = 25 °C)	ΔGads ([5]; T = 25 °C) [kJ/mol]	ΔGmic ([5]; T = 25 °C) [kJ/mol]	CMC ([5]; T = 25 °C (T > Tk))	γcmc ([5]; T = 25 °C (T > Tk)) [mN/m]	Amin ([5]; T = 25 °C) [Å^2/molecule]	further results
CCCCCCCC(=O)O[C@H]1[C@H](O)[C@@H](CO)OC(O)[C@@H]1O (stereo partly drawn) [3-O-octanoyl-D-glucopyranose]										CMC ([1]; mixture of α and β anomers): 0.61 mM; CMC ([1]; ref 21): 1.6 mM
CCCCCCCC(=O)OC[C@H]1O[C@@H](O)[C@H](O)[C@@H](O)[C@@H]1O [6-O-octanoyl-β-glucose]										CMC ([1]; ref 20): 18 mM; solubility limit [2]: 25 mg/mL and > 80 mM
CCCCCCCC(=O)OC1O[C@H](CO)[C@@H](O)[C@H](O)[C@H]1O (stereo partly drawn) [D-glucosyl octanoate]										CMC [1, 6]: 19.1 mM
CCCCCCOC(=O)[C@H]1O[C@H](OC)[C@H](O)[C@@H](O)[C@@H]1O [MeαGlc(C=O)OC6]	<4	≤ 50	5.9	2.2	-24.7	-15.1	55 ± 5 mM	30.8 ± 0.8	39.2 ± 2.9	
CCCCCCCCOC(=O)[C@H]1O[C@H](OC)[C@H](O)[C@@H](O)[C@@H]1O [MeαGlc(C=O)OC8, methyl octyl α-D-glucuronate]	<4	15 to 20 (≈ 4810 to 6410 µg/mL)	0.5	3.3	-30.5	-20.1	6 mM and 6 ± 0.5 mM	29.2 ± 0.35	41 ± 1	
CCCCCCCCCCOC(=O)[C@H]1O[C@H](OC)[C@H](O)[C@@H](O)[C@@H]1O [MeαGlc(C=O)OC10]	<4	0.5 to 0.75 (≈ 174 to 261 µg/mL)	0.05	4.3	-36	-24.7	0.65 ± 0.5 mM	28.1 ± 0.1	42.4 ± 2	
CCCCCCCCOC(=O)[C@@H](O)[C@@H](O)[C@H](O)[C@@H](O)C=O [octyl D-glucuronate]										CMC [1, 6]: 10.7 mM; CMC ([1]; ref 17): 10.68 mM

Further lines, with some results ahead:

Tk (Krafft temperature) [3] [°C]	solubility ([4]; at RT) [mM]	C20 ([5]; T = 25 °C) [mM]	pC20 ([5]; T = 25 °C)	ΔGads ([5]; T = 25 °C) [kJ/mol]	ΔGmic ([5]; T = 25 °C) [kJ/mol]	CMC ([5]; T = 25 °C (T > Tk))	γcmc ([5]; T = 25 °C (T > Tk)) [mN/m]	Amin ([5]; T = 25 °C) [Å^2/molecule]	SMILES	further results
22.1 ± 0.2	0.02 to 0.05 (≈ 7.53 to 18.8 µg/mL)	0.004	5.4	-42.3	-30.1	0.056 ± 0.004 mM	28.3 ± 0.3	45.6 ± 5	CCCCCCCCCCCCOC(=O)[C@H]1O[C@H](OC)[C@H](O)[C@@H](O)[C@@H]1O [MeαGlc(C=O)OC12]	
<4	< 40	11.2	2.0	-23.4	-13.8	105 ± 5 mM	31 ± 0.1	40.1 ± 0.3	CCCCCC(=O)OC[C@H]1O[C@H](OC)[C@H](O)[C@@H](O)[C@@H]1O [MeαGlcO(C=O)C5, Methyl 6-O-hexanoyl-α-D-glucopyranoside]	
<4	≤ 10	1.0	3.0	-28.9	-18.8	9.8 mM and 9.8 ± 0.76 mM	29.5 ± 0.5	39 ± 2	CCCCCCCC(=O)OC[C@H]1O[C@H](OC)[C@H](O)[C@@H](O)[C@@H]1O [MeαGlcO(C=O)C7, Methyl 6-O-octanoyl-α-D-glucopyranoside]	solubility ([4]; at T > Tk): < 10 mM
26.5 ± 0.2									CCCCCCCCCC(=O)OC[C@H]1O[C@H](OC)[C@H](O)[C@@H](O)[C@@H]1O [MeαGlcO(C=O)C9, Methyl 6-O-decanoyl-α-D-glucopyranoside]	Solubility Limit (S/mM) ([4]; at RT): insoluble; solubility ([4]; at T > Tk): ≤ 1 mM; C20 ([5]; T = 30 °C): 0.08 mM; pC20 ([5]; T = 30 °C): 4.1; ΔGads ([5]; T = 30 °C): -35.1 kJ/mol; ΔGmic ([5]; T = 30 °C): -24.3 kJ/mol; CMC ([5]; T = 30 °C (T > Tk)): 0.92 ± 0.08 mM; γcmc ([5]; T = 30 °C (T > Tk)): 27.9 ± 0.05 mN/m; Amin ([5]; T = 30 °C): 41.8 ± 0.9 Å^2/molecule
42.9 ± 0.1									CCCCCCCCCCCC(=O)OC[C@H]1O[C@H](OC)[C@H](O)[C@@H](O)[C@@H]1O [MeαGlcO(C=O)C11, Methyl 6-O-dodecanoyl-α-D-glucopyranoside]	Solubility Limit (S/mM) ([4]; at RT): insoluble; solubility ([4]; at T > Tk): ≤ 0.1 mM; C20 ([5]; T = 50 °C): 0.007 mM; pC20 ([5]; T = 50 °C): 5.1; ΔGads ([5]; T = 50 °C): -43.5 kJ/mol; ΔGmic ([5]; T = 50 °C): -32.2 kJ/mol; CMC ([5]; T = 50 °C (T > Tk)): 0.08 ± 0.005 mM; γcmc ([5]; T = 50 °C (T > Tk)): 26.7 ± 0.25 mN/m; Amin ([5]; T = 50 °C): 45.8 ± 2.8 Å^2/molecule
31.6 ± 0.9									CCCCCCCCOC(=O)[C@H]1O[C@@H](OC)[C@H](O)[C@@H](O)[C@H]1O [MeβGal(C=O)OC8, methyl octyl galacturonate]	Solubility Limit (S/mM) ([4]; at RT): insoluble; Solubility Limit (S/mM) ([4]; at T > Tk): high solubility limits; solubility ([4]; at T > Tk): > 100 mM; C20 ([5]; T = 40 °C): 1.2 mM; pC20 ([5]; T = 40 °C): 2.9; ΔGads ([5]; T = 40 °C): -31 kJ/mol; ΔGmic ([5]; T = 40 °C): -20.9 kJ/mol; CMC ([5]; T = 40 °C (T > Tk)): 6.9 ± 0.4 mM; γcmc ([5]; T = 40 °C (T > Tk)): 29.4 ± 0.36 mN/m; Amin ([5]; T = 40 °C): 42.9 ± 3.9 Å^2/molecule
<4	> 100	0.7	3.1	-30.5	-19.2	8.5 ± 0.5 mM	28.3 ± 0.35	42.7 ± 2.4	CCCCCCCC(=O)OC[C@H]1O[C@@H](OC)[C@H](O)[C@@H](O)[C@H]1O [MeβGalO(C=O)C7, Methyl 6-O-octanoyl-β-D-galactopyranoside]	Solubility Limit (S/mM) ([4]; at T > Tk): high solubility limits
